# Measured values: US20070148703A1, “Method of screening remedy for breast cancer” (Genomembrane, Inc., priority 2003, published 2007)
# “And” between values parts separate entries of the source, which are not always exact repeats. Equal entries are not always repeated.
# Columns and labels:
# Assay type in all cases: cell-based, human
# T-47D cells [1] = experiment: Inhibition of [3H] estrone-3-sulfate uptake by T-47D cells
# Method: The cell suspension and a solution containing a radiolabeled test compound in the transport medium were separately incubated at 37° C. for 20 min, then transport was initiated by mixing them. […] Each cell pellet was solubilized in 3 N KOH, and neutralized with HCl. Then, the associated radioactivity was measured by means of a liquid scintillation counter using Clearsol-1 (Nacalai tesque) as a liquid scintillation fluid.
# To characterize the substrate specificity of the transport system, the inhibitory effects of hormones, their conjugated metabolites, and various organic compounds on [^3H] estrone-3-sulfate uptake by T-47D cells were examined. The results are shown in (Table 1). In Table 1, values in control (%) are indicated as the ratio in comparison to uptake amount of estrone-3-sulfate in control which was set at 100%. Each value represents the mean±S.E.M. (n=4), and *P<0.05 indicates comparison to control (Student's test).
# MCF-7 cells = experiment: MCF-7 cell proliferation with estrone-3-sulfate or estradiol, with or without BSP
# Method: It was examined whether cell proliferation promoting effect on MCF-7 cells (ATCC-HTB22) by estrone-3-sulfate is inhibited by suppressing intracellular accumulation of estrone-3-sulfate. MCF-7 cells were seeded on a 96-well plate at a concentration of 8×10^4 cells/cm^2, and cultured for 1 day. Then, a medium containing estrone-3-sulfate (Sigma Chemicals) at various concentrations, ranging from 10 pM to 10 μM, and 100 μM of bromosulfophtalein (BSP: Sigma Chemicals), and a medium containing estradiol (Sigma Chemicals) at various concentrations, ranging from 1 pM to 10 nM, and 100 μM of BSP were added respectively, and culture was conducted for 3 more days. Subsequently, cell amount was measured.
# However, this is considered to be estrogen activity by BSP itself or metabolite thereof. This effect decreased relatively with the increase of estrogen concentration. […] Accordingly, it is considered that the uptake of estrone-3-sulfate into the cells was inhibited by BSP, and that of estradiol, which is highly lipid-soluble, was not inhibited, and therefore there was no change in cell proliferation promoting effect.
# T-47D cells [2] = experiment: Uptake of estrone-3-sulfate by T-47D cells (time course, cation and concentration dependence); details: 5.1 nM to 50 μM, 37° C., 10 min, saturable uptake; mean±S.E.M.
# Method: Cultured T-47D cells were incubated at 37° C. over 35 min in medium containing [^3H] estrone-3-sulfate (7.1 nM) with (open circles) or without (closed circles) 1 mM unlabeled estrone-3-sulfate. Each value represents the mean±S.E.M. (n=4). When the error bars are not shown, they are smaller than the symbols.
# The uptake rate of [^3H] estrone-3-sulfate (7.1 nM) for 10 min was measured in the presence or absence of extracellular Na^+. Extracellular Na^+ was replaced with K^+, Li^+, or N-methylglucamine^+ (NMG^+). Each value represents the mean±S.E.M. (n=4).
# The uptake of estrone-3-sulfate at various concentrations, ranging from 5.1 nM to 50 μM, was measured at 37° C. for 10 min. […]
# Transport experiments were performed as described previously (Tamai et al., 2001). […] Then, the associated radioactivity was measured by means of a liquid scintillation counter using Clearsol-1 (Nacalai tesque) as a liquid scintillation fluid.
# (§1) Cellular protein content was determined according to the method of Bradford by using a BioRad protein assay kit (Hercules) with bovine serum albumin as the standard (Bradford, 1976). […] All data were expressed as means±S.E.M., and statistical analysis was performed by the use of Student's t test with P<0.05 as the criterion of significance. […]
# T-47D cells [3] = experiment: T-47D cell proliferation assay
# Method: (a) T-47D cells were seeded at a density of 8,000 cells/well and cultured. 24 hours after seeding (day 1), estradiol (1 pM, closed triangles), estrone-3-sulfate (100 nM, closed circles), DMSO (0.1, open triangles) or water (open circles) was added. After the designated number of days, T-47D cells were trypsinized and counted.
# (b) T-47D cells were proliferated in the presence of various concentrations of estradiol (closed triangles) or estrone-3-sulfate (closed circles), ranging from 10^−16 to 10^−11 M, or from 10^−11 to 10^−6 M, respectively. The cell numbers were counted at day 6 after seeding. Each value represents the mean±S.E.M. (n=3).
# T-47D cells were routinely proliferated in RPMI 1640 medium (Sigma Chemicals) containing phenol red and 10% FCS in a humidified incubator at 37° C. and 5% CO2. For the proliferation assay, FCS was incubated with 0.5% dextran-coated charcoal (DCC) at 4° C. overnight, then the medium was decanted and DCC was filtered off (0.2 μm) to remove steroid hormones. This procedure was repeated three times. Then T-47D cells were seeded into 96-well plates at a density of 8,000 cells/well in phenol red-free RPMI 1640 medium containing 2.5% DCC-treated FCS. […] At designated days after seeding, the cells were treated with trypsin, and cell numbers were counted.
# T-47D cells [4] = experiment: Uptake of DHEAS by T-47D cells (time course, concentration dependence); details: 10.3 nM to 100 μM, 37° C., 10 min, saturable uptake
# Method: The uptake of DHEAS at various concentrations, ranging from 10.3 nM to 100 μM, was measured at 37° C. for 10 min. The saturable uptake was obtained after subtraction of the uptake in the presence of excess of unlabeled DHEAS (5 mM) and used for the evaluation of kinetic constants by nonlinear least-squares analysis. […] Each value represents the mean±S.E.M. (n=4). When the error bars are not shown, they are smaller than the symbols.
# Transport experiments were performed as described previously (Tamai et al., 2001). After cultivation of T-47D cells in 15 cm dishes, the cells were harvested and suspended in the transport medium containing 125 mM NaCl, 4.8 mM KCl, 5.6 mM D-glucose, 1.2 mM CaCl2, 1.2 mM KH2PO4, 1.2 mM MgSO4 and 25 mM Hepes, adjusted to pH 7.4. […] Then, the associated radioactivity was measured by means of a liquid scintillation counter using Clearsol-1 (Nacalai tesque) as a liquid scintillation fluid.
# as §1
# [5] = inhibitor 100 μM, mean±S.E.M. (n=4)
# [6] = inhibitor 1000 μM, mean±S.E.M. (n=4)
# [7] = inhibitor 5 μM, mean±S.E.M. (n=4)
# [8] = inhibitor 50 μM, mean±S.E.M. (n=4)
Molecule,"[3H] estrone-3-sulfate uptake, Control (%) (T-47D cells [1]; [5])","[3H] estrone-3-sulfate uptake, Control (%) (T-47D cells [1]; [6])","[3H] estrone-3-sulfate uptake, Control (%) (T-47D cells [1]; [7])","[3H] estrone-3-sulfate uptake, Control (%) (T-47D cells [1]; [8])","inhibitory effect on [3H] estrone-3-sulfate uptake, in words (T-47D cells [1]; concentration not given)",also measured
O=C1OC(c2ccc(O)c(S(=O)(=O)O)c2)(c2ccc(O)c(S(=O)(=O)O)c2)c2c(Br)c(Br)c(Br)c(Br)c21 [Bromosulfophtalein],18.9 ± 2.8 * %,14.2 ± 1.2 * %,,,,"[3H] estrone-3-sulfate uptake, Control (%) (T-47D cells [1]; inhibitor 100 μM, mean±S.E.M. (n=4), listed as bromosulfophthalein): 18.9%; cell proliferation of MCF-7 cells with 100 μM BSP (MCF-7 cells; 100 μM BSP added simultaneously, low estrone-3-sulfate concentration): cell proliferation promoting effect was observed; cell proliferation promoting effect by BSP (MCF-7 cells; 100 μM BSP plus 10 μM estrone-3-sulfate): inhibited; cell proliferation promoting effect by BSP (MCF-7 cells; 100 μM BSP plus estradiol): no change"
C[C@]12CC[C@H](O)CC1=CC[C@@H]1[C@@H]2CC[C@]2(C)C(=O)CC[C@@H]12 [Dehydroepiandrosterone],,,75.6 ± 3.8 * %,44.8 ± 8.0 * %,,
C[C@H]1O[C@@H](O[C@H]2[C@@H](O)C[C@H](O[C@H]3[C@@H](O)C[C@H](O[C@H]4CC[C@@]5(C)[C@H](CC[C@@H]6[C@@H]5C[C@@H](O)[C@]5(C)[C@@H](C7=CC(=O)OC7)CC[C@]65O)C4)O[C@@H]3C)O[C@@H]2C)C[C@H](O)[C@@H]1O [Digoxin],,,,,no effect,"[3H] estrone-3-sulfate uptake, Control (%) (T-47D cells [1]; inhibitor 100 μM, DMSO 1%, vs Control (DMSO 1%)): 90.3 ± 3.5%; [3H] estrone-3-sulfate uptake, Control (%) (T-47D cells [1]; inhibitor 1000 μM, DMSO 1%, vs Control (DMSO 1%)): 94.8 ± 4.4%"
C[C@]12CC[C@@H]3c4ccc(O)cc4CC[C@H]3[C@@H]1CC[C@@H]2O[C@@H]1O[C@H](C(=O)O)[C@@H](O)[C@H](O)[C@H]1O [Estradiol-17β-glucuronide],,,73.8 ± 8.7%,90.4 ± 11.5%,,"inhibitory effect on [3H] estrone-3-sulfate uptake, in words (T-47D cells [1]; 50 μM): no effect"
C[C@]12CC[C@@H]3c4ccc(O)cc4CC[C@H]3[C@@H]1CC[C@@H]2O [Estradiol],,,76.9 ± 4.8 * %,45.7 ± 5.3 * %,,
C[C@]12CC[C@@H]3c4ccc(OS(=O)(=O)O)cc4CC[C@H]3[C@@H]1CCC2=O [Estrone-3-sulfate],,,34.7 ± 4.3 * %,6.6 ± 0.9 * %,,"Km (T-47D cells [2]): 3.9 ± 0.78 µM; Vmax of estrone-3-sulfate uptake (T-47D cells [2]): 576.3±32.9 pmol/mg protein/10 min; proliferation of T-47D cells compared with solvent alone (T-47D cells [3]; 100 nM): stimulated; EC50 (T-47D cells [3]; 6 days after seeding, nonlinear regression analysis, read-out: median effective concentration (EC50), stimulation of T-47D proliferation): ~17.1 nM and 17.1 nM; [3H] estrone-3-sulfate uptake, Control (%) (T-47D cells [1]; inhibitor 5 μM, mean±S.E.M. (n=4), listed as estrone-3-sulfate): 34.7%; [3H] estrone-3-sulfate uptake, Control (%) (T-47D cells [1]; inhibitor 50 μM, mean±S.E.M. (n=4), listed as estrone-3-sulfate): 6.6%; cell proliferation promoting effect on MCF-7 cells (MCF-7 cells; estrogen only (positive control), 3 days): cell proliferation promoting effect was observed"
C[C@]12CC[C@@H]3c4ccc(O)cc4CC[C@H]3[C@@H]1CCC2=O [Estrone],,,78.8 ± 3.3 * %,64.8 ± 7.5 * %,,
CC1(C)S[C@@H]2[C@H](NC(=O)Cc3ccccc3)C(=O)N2[C@H]1C(=O)O [Penicillin G],83.2 ± 2.0 * %,75.9 ± 10.5%,,,slight inhibitory effects,
CCCN(CCC)S(=O)(=O)c1ccc(C(=O)O)cc1 [Probenecid],103.2 ± 10.2%,79.1 ± 3.8 * %,,,slight inhibitory effects,
O=C(O)c1ccccc1O [Salicylate],94.9 ± 6.0%,82.7 ± 7.3%,,,no effect,
C[C@H](CCC(=O)NCCS(=O)(=O)O)[C@H]1CC[C@H]2[C@@H]3[C@H](O)C[C@@H]4C[C@H](O)CC[C@]4(C)[C@H]3C[C@H](O)[C@]12C [Taurocholic acid],69.3 ± 2.7 * %,24.1 ± 2.3 * %,,,,"[3H] estrone-3-sulfate uptake, Control (%) (T-47D cells [1]; inhibitor 100 μM, mean±S.E.M. (n=4), listed as taurocholic acid): 69.3%"
CC[N+](CC)(CC)CC [Tetraethylammonium],87.4 ± 1.5 * %,112.7 ± 18.6%,,,no effect,
Nc1ccc(C(=O)NCC(=O)O)cc1 [p-Aminohippuric acid],87.8 ± 1.5%,112.7 ± 18.6%,,,no effect,
Dehydroepiandrosterone sulfate,,,66.4 ± 5.7 * %,27.0 ± 7.6 * %,,"[3H] estrone-3-sulfate uptake, Control (%) (T-47D cells [1]; inhibitor 50 μM, mean±S.E.M. (n=4), listed as DHEAS): 44.8%; Km (T-47D cells [4]): 62.5 ± 21.1 µM; Vmax of DHEAS uptake (T-47D cells [4]): 1893±315.7 pmol/mg protein/10 min"
